Laboratory results taken from patent US20100003311A1, “Antimicrobial Composition” (priority 2006, published 2010).

Assays:
[1] = test system: human keratinocytes; experiment: β-defensin production in culture medium containing human keratinocytes contacted with the compositions (FIG. 1); assay type: cell-based; settings: compared with lipopolysaccharide
Source text: The data was obtained by measuring β-defensin production in culture medium containing human keratinocytes when contacted with the various compositions.

[2] = test system: epithelial surfaces (both mucosa and skin); experiment: release of β-defensin 2 by epithelial surfaces
Source text: The stimulation of β-defensin 2 by hyaluronic acid has been observed by the patent inventor. […] The application of hyaluronic acid to the skin is thought to increase the amount of innate immunity antibiotic peptides such as β-defensin 2 that are present and therefore provide an increased level of innate immunity. The stimulation of defensin and other innate immunity antibiotic peptide expression in sites of skin and mucosa injury may therefore facilitate tissue repair by providing innate immunity and decreasing the possible bacterial contamination and colonisation of tissues by opportunistic pathogens.

hyaluronic acid
stimulation of β-defensin production [1]: stimulates β-defensin production by human keratinocytes significantly, and considerably more than lipopolysaccharide
release of β-defensin 2 [2]: able to determine the release of β-defensin 2 by epithelial surfaces
